Data as given in patent US4400387A, “Indolizine derivatives and uses in therapeutics” (S. A. Labaz-Sanofi N.V., priority 1979, dated 1983).
Each block holds one molecule with its values, some of them ahead of it.

What was measured:
[1] = target: T1, adenosine deaminase obtained from calf intestine (Bos taurus, UniProt P56658); experiment: Inhibition of the action of adenosine deaminase in vitro (decrease in absorbance at 265 nm); assay type: biochemical; conditions: pH 7.4, 30° C.
T1 construct: purchased
T1 sequence (P56658 1-363): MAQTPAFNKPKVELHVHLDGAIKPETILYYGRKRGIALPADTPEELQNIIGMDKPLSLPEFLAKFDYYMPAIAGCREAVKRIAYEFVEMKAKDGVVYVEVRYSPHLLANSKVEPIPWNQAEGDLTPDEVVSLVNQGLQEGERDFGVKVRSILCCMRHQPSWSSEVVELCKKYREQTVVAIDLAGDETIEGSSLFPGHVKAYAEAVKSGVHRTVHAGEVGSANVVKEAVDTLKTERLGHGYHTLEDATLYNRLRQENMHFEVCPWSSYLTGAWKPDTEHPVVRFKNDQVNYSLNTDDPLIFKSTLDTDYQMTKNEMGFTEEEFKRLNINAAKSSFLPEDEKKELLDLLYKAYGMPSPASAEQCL
Method: This test was performed with adenosine deaminase obtained from calf intestine.
(§1) The experimental procedure described hereunder was used:
In the absorption cell the following solutions were introduced:
2.7 ml of a 0.1 molar phosphate buffer solution (pH=7.4)
0.3 ml of a 10^-4 or 5.10^-4 molar solution of adenosine in the phosphate buffer solution (final concentration in adenosine: 10^-5 or 5.10^-5 mol) 0.01 ml of a 3.10^-3 molar ethanolic solution of the compound to be studied (about 10 milliunits)
The contents of the absorption cell were allowed to incubate for 2 minutes and then the enzymatic reaction was started by adding 0.03 ml of a commercial adenosine deaminase solution having a known concentration in enzyme. The reaction was performed at 30° C. and followed by spectrophotometric recording of the decrease in absorbance at 265 nm due to the transformation of adenosine into inosine by means of adenosine deaminase. This enzymatic reaction can be represented by the following equation: [formula]
The same measurements were performed with a control solution containing all the ingredients referred to above except the compound being studied. Curves were then plotted representing the decrease in absorbance in comparison with time obtained on the one hand with the solution containing the inhibitor and on the other with the control solution.
The slope of both curves was measured and expressed in the number of mols of inosine formed in one minute. After that, the percent of inhibition of the activity of adenosine deaminase provoked by a compound of the invention was calculated.

[2] = target: T2, adenosine deaminase in ascites cells (Krebs II) (Mus musculus, UniProt P03958); experiment: Inhibition of adenosine deamination in intact ascites cells (14C adenosine); assay type: cell-based; conditions: 14C adenosine 5.10^-5 M, read-out: concentration at which deamination of adenosine by ascites cells was 50% inhibited (converted)
T2 construct: tested in intact cells by incubating ascites cells (Krebs II); endogenous in cells; host or cells: Krebs II ascites cells
T2 sequence (P03958 1-352): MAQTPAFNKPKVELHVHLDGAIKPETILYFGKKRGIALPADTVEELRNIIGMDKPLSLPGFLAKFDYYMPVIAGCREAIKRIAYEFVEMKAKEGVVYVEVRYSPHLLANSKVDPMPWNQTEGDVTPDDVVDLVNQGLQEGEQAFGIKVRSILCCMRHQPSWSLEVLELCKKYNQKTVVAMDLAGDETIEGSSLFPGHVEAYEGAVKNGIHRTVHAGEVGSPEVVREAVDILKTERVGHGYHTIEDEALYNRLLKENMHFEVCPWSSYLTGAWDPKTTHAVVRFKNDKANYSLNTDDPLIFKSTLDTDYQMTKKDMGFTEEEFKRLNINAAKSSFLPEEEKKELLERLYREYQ
Method: The inhibition of the action of adenosine deaminase by these two above-cited compounds has also been tested in intact cells by incubating ascites cells (Krebs II) in the presence of ^14 C adenosine at a concentration of 5.10^-5 M and by measuring the formation of inosine and hypoxanthine ^14 C. The deamination of adenosine due to the ascites cells was 50% inhibited in the presence of 2.10^-6 M of 1-bromo-2-phenyl-3-(3-bromo-4-hydroxy-benzoyl)-indolizine and of 10^-6 M of 1-bromo-2-(4-fluoro-phenyl)-3-(3-bromo-4-hydroxy-benzoyl)-indolizine.

[3] = Acute toxicity tests in mice; assay type: in vivo; conditions: 20 mg/kg by intravenous route
Method: Acute toxicity tests were performed in mice with compounds of the invention.

[4] = target: T1, adenosine deaminase obtained from calf intestine; experiment: Inhibition of the action of adenosine deaminase in vitro (decrease in absorbance at 265 nm); assay type: biochemical; conditions: compound at a concentration of 10^-6 M
[5] = target: T3, xanthine oxidase found in milk (Bos taurus, UniProt P80457); experiment: Inhibition of the action of xanthine oxidase in vitro (U.V. spectrophotometry, formation of uric acid from hypoxanthine); assay type: biochemical; conditions: compound at 10^-5 M; hypoxanthine substrate, pH 7.4, 37° C.
T3 construct: purchased
Method: This trial was performed with xanthine oxidase found in milk. The activity of the enzymatic preparation was measured by following the formation of uric acid starting from hypoxanthine in the presence of oxygen and of a phosphate buffer solution.
as §1
In the absorption cell, the following solutions were introduced:
1.5 ml of a 0.1 molar phosphate buffer solution (pH=7.4) saturated with oxygen.
0.3 ml of a 1 m molar solution of ethylene diamine tetraacetate.
0.01 ml of a commercial xanthine oxidase solution having a known concentration in enzyme.
0.01 ml of a 3.10^-3 molar ethanolic solution of the compound to be tested.
The contents of the absorption cell were allowed to incubate for 2 minutes and then the enzymatic reaction was started by adding 0.3 ml of a 10^-3 molar solution of hypoxanthine to the absorption cell. The reaction was followed by spectrophotometric recording of the oxidation rate of hypoxanthine at 293 nm and at 37° C. The optical density was automatically registered. The same measurements were performed with a control solution containing all the ingredients referred to above except the compound being tested.
In this way, a curve representing the variation in optical density in comparison with time was obtained with the solution containing the inhibitor on the one hand and devoid of inhibitor on the other. The slope of both curves was measured and expressed in the number of mols of uric acid formed in one minute. Thus, it was possible to compare the values obtained and calculate, in percent, the inhibition of the activity of xanthine oxidase provoked by a compound of the invention.

[6] = Uricosuric action in humans after a single oral dose; assay type: in vivo; conditions: single oral dose 300 mg
Method: The uricosuric action was determined in humans after a single dose of 300 mg of 2-ethyl-3-(3,5-dibromo-4-hydroxy-benzoyl)-indolizine by oral route.

[7] = target: T3, xanthine oxidase found in milk; experiment: Inhibition of the action of xanthine oxidase in vitro (U.V. spectrophotometry, formation of uric acid from hypoxanthine); assay type: biochemical; conditions: compound at a concentration of 10^-6 M
HSV-1 (KOS) = experiment: Herpetic skin lesions and mortality of nu/nu mice inoculated with HSV-1 (KOS), topical Ara-A and/or compound; assay type: in vivo; conditions: topical 1% in dimethylsulfoxide, 4 times daily days 0-4
Method: This test was carried out in order to determine the effects of adenine arabinoside (Ara-A) and compounds of the invention on the incidence of herpetic skin lesions and mortality of nu/nu mice inoculated with HSV-1 (KOS). Athymic nude (nu/nu) mice, 20 to 25 days old, were inoculated intracutaneously with HSV-1 (KOS) at about 10^4.5 PFU (plaque-forming units) per mouse. Ara-A and/or a compound of the invention were applied topically at 1% in dimethylsulfoxide, 4 times daily on days 0, 1, 2, 3 and 4. The number of mice with epidermal lesion (necrosis of at least 5 to 10 mm long) per total number of mice alive was registered.

T3 sequence (P80457 whole entry): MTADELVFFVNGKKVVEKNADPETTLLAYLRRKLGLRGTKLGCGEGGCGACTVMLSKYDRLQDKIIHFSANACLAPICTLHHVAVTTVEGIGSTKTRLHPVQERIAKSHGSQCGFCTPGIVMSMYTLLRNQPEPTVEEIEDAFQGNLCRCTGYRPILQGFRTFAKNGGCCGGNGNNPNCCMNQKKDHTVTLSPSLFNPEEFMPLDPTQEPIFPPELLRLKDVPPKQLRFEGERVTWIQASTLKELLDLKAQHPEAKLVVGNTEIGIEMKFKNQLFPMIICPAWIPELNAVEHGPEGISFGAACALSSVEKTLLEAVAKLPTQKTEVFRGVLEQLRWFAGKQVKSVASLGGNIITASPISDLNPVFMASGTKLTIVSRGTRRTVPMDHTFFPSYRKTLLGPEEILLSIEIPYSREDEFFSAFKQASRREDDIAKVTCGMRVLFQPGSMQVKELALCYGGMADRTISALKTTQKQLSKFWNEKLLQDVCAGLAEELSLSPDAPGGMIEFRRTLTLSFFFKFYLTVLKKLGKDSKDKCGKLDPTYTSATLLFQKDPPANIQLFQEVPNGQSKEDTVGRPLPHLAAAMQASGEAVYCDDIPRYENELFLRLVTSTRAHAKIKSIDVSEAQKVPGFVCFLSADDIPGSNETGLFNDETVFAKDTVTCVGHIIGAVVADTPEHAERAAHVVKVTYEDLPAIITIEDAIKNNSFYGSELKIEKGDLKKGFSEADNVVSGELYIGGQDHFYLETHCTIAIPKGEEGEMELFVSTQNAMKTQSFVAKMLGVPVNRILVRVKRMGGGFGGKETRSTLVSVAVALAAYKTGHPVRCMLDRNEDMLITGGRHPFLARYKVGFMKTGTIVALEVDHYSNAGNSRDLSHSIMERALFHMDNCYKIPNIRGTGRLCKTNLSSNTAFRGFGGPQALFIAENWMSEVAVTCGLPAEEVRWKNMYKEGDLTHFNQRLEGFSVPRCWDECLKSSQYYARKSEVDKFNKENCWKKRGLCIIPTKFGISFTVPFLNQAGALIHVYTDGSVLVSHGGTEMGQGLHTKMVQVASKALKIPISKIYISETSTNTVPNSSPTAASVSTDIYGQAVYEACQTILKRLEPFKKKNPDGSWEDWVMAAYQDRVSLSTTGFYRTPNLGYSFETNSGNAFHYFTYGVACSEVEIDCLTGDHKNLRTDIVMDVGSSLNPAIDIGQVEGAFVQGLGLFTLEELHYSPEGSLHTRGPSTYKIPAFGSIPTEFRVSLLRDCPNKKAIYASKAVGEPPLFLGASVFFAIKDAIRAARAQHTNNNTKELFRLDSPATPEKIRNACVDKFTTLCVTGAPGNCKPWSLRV

SMILES: O=C(c1ccc(O)c(Br)c1)c1c(-c2ccc(F)cc2)c(Br)c2ccccn12 [4-Fluoro-phenyl Br Br H, 1-Bromo-2-(4-fluoro-phenyl)-3-(3-bromo-4-hydroxy-benzoyl)-indolizine]
Inhibition of the action of adenosine deaminase in vitro (in %) At 5.10^-5 M adenosine [1]: 94%
Inhibition of the action of adenosine deaminase in vitro (in %) At 10^-5 M adenosine [1]: 100%
IC50 [2]: 1000 nM
deaths after 14 days [3]: on death was registered
inhibition at 1 µM [4]: 86%

SMILES: CCc1cc2ccccn2c1C(=O)c1cc(Br)c(O)c(Br)c1 [Ethyl H Br Br, 2-Ethyl-3-(3,5-dibromo-4-hydroxy-benzoyl)-indolizine]
inhibition at 10 µM [5]: 98%
Tmax ([6]; human, plasma, read-out: time of highest plasmatic level): 5 h
mean increase of urinary excretion of uric acid in 24 hours ([6]; 24 hours): 22%
lowering of uricemia ([6]; by the 5th hour): 9%
increase of urinary excretion of uric acid ([6]; period between 12th and 24th hour): 40%

SMILES: CCc1cc2ccccn2c1C(=O)c1ccc(O)c(OC)c1 [Ethyl H H OCH3, 2-Ethyl-2-(3-methoxy-4-hydroxy-benzoyl)-indolizine]
inhibition at 10 µM [5]: 57%

SMILES: CC(C)c1cc2ccccn2c1C(=O)c1cc(Cl)c(O)c(Cl)c1 [Isopropyl H Cl Cl, 2-Isopropyl-3-(3,5-dichloro-4-hydroxy-benzoyl)-indolizine]
inhibition at 10 µM [5]: 96%
Inhibition of the action of adenosine deaminase in vitro (in %) At 5.10^-5 M adenosine [1]: 76%

SMILES: Cc1c(Br)c2ccccn2c1C(=O)c1cc(Cl)c(O)c(Cl)c1 [Methyl Br Cl Cl, 1-Bromo-2-methyl-3-(3,5-dichloro-4-hydroxy-benzoyl)-indolizine]
inhibition at 10 µM [5]: 46%

SMILES: Cc1cc2ccccn2c1C(=O)c1ccc(O)c(Br)c1 [Methyl H H Br, 2-Methyl-3-(3-bromo-4-hydroxy-benzoyl)-indolizine]
inhibition at 10 µM [5]: 74%

SMILES: O=C(c1cc(Br)c(O)c(Br)c1)c1c(-c2ccccc2)c(Br)c2ccccn12 [Phenyl Br Br Br, 1-Bromo-2-phenyl-3-(3,5-dibromo-4-hydroxy-benzoyl)-indolizine]
inhibition at 10 µM [5]: 48%
Inhibition of the action of adenosine deaminase in vitro (in %) At 5.10^-5 M adenosine [1]: 22%
Inhibition of the action of adenosine deaminase in vitro (in %) At 10^-5 M adenosine [1]: 53%

SMILES: O=C(c1ccc(O)c(Br)c1)c1c(-c2ccccc2)c(Br)c2ccccn12 [Phenyl Br Br H, 1-Bromo-2-phenyl-3-(3-bromo-4-hydroxy-benzoyl)-indolizine]
Inhibition of the action of adenosine deaminase in vitro (in %) At 5.10^-5 M adenosine [1]: 88%
Inhibition of the action of adenosine deaminase in vitro (in %) At 10^-5 M adenosine [1]: 100%
IC50 [2]: 2000 nM
effect on the antiviral (anti-herpetic) activity of adenine arabinoside (Ara-A) (HSV-1 (KOS)): potentiates the antiviral activity of adenine arabinoside
deaths after 14 days [3]: on death was registered
inhibition at 1 µM [4]: 80%

SMILES: CCCc1c(Br)c2ccccn2c1C(=O)c1cc(Br)c(O)c(Br)c1 [n-Propyl Br Br Br, 1-Bromo-2-n-propyl-3-(3,5-dibromo-4-hydroxy-benzoyl)-indolizine]
inhibition at 10 µM [5]: 95%

SMILES: CCCc1c(Br)c2ccccn2c1C(=O)c1ccc(O)c(Br)c1 [n-Propyl Br Br H, 1-Bromo-2-n-propyl-3-(3-bromo-4-hydroxy-benzoyl)-indolizine]
inhibition at 10 µM [5]: 97%

SMILES: CCCc1c(Br)c2ccccn2c1C(=O)c1ccc(O)c(Cl)c1 [n-Propyl Br H Cl, 1-Bromo-2-n-propyl-3-(3-chloro-4-hydroxy-benzoyl)-indolizine]
inhibition at 10 µM [5]: 84%

Now from value to molecule:

inhibition at 10 µM [5]: 99%
inhibition at 1 µM [7]: 84%
SMILES: CC(C)c1cc2ccccn2c1C(=O)c1cc(Br)c(O)c(Br)c1 [Isopropyl H Br Br, 2-Isopropyl-3-(3,5-dibromo-4-hydroxy-benzoyl)-indolizine]

inhibition at 10 µM [5]: 94%
SMILES: CC(C)c1cc2ccccn2c1C(=O)c1ccc(O)c(Br)c1 [Isopropyl H H Br, 2-Isopropyl-3-(3-bromo-4-hydroxy-benzoyl)-indolizine]

inhibition at 10 µM [5]: 88%
SMILES: CC(C)c1cc2ccccn2c1C(=O)c1ccc(O)c(Cl)c1 [Isopropyl H H Cl, 2-Isopropyl-3-(3-chloro-4-hydroxy-benzoyl)-indolizine]

inhibition at 10 µM [5]: 44%
SMILES: Cc1c(Br)c2ccccn2c1C(=O)c1ccc(O)c(Cl)c1 [Methyl Br Cl H, 1-Bromo-2-methyl-3-(3-chloro-4-hydroxy-benzoyl)-indolizine]

inhibition at 10 µM [5]: 91%
SMILES: Cc1cc2ccccn2c1C(=O)c1cc(Br)c(O)c(Br)c1 [Methyl H Br Br, 2-Methyl-3-(3,5-dibromo-4-hydroxybenzoyl)-indolizine]

inhibition at 10 µM [5]: 84%
SMILES: Cc1cc2ccccn2c1C(=O)c1cc(Cl)c(O)c(Cl)c1 [Methyl H Cl Cl, 2-Methyl-3-(3,5-dichloro-4-hydroxy-benzoyl)-indolizine]
